Assay results from patent US10167262B2, “Herbicidal substituted 3-arylpyrazoles” (FMC CORPORATION, priority 2014, dated 2019).

Legend:
Test in all cases: Test C pre-/postemergence greenhouse test, plant response rating 0-100
Format in all cases: in vivo
[1] = system: Italian ryegrass (Lolium multiflorum); conditions: Postemergence; for Plant response rating, Ryegrass, Italian: scale 0 to 100
Method in brief: (§1)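 Seeds were sown in a loam soil–sand blend and sprayed preemergence with test chemicals in a non-phytotoxic solvent mixture containing surfactant; postemergence plants in peat/vermiculite medium were treated at 2–18 cm (1- to 4-leaf stage). After 13 to 15 days in the greenhouse, injury was rated visually against untreated controls.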

[2] = system: giant foxtail (Setaria faberii); conditions: Postemergence; for Plant response rating, Foxtail, Giant: scale 0 to 100
Method in brief: as §1

[3] = system: winter wheat (Triticum aestivum); conditions: Postemergence; for Plant response rating, Wheat: scale 0 to 100
Method in brief: as §1

[4] = system: velvetleaf (Abutilon theophrasti); conditions: Postemergence; for Plant response rating, Velvetleaf: scale 0 to 100
Method in brief: as §1

[5] = system: pigweed (Amaranthus retroflexus); conditions: Postemergence; for Plant response rating, Pigweed: scale 0 to 100
Method in brief: as §1

[6] = system: soybean (Glycine max); conditions: Postemergence; for Plant response rating, Soybean: scale 0 to 100
Method in brief: as §1

[7] = system: johnsongrass (Sorghum halepense); conditions: Postemergence; for Plant response rating, Johnsongrass: scale 0 to 100
Method in brief: as §1

[8] = system: large (Lg) crabgrass (Digitaria sanguinalis); conditions: Postemergence; for Plant response rating, Crabgrass, Large: scale 0 to 100
Method in brief: as §1

[9] = system: galium (catchweed bedstraw, Galium aparine); conditions: Postemergence; for Plant response rating, Galium: scale 0 to 100
Method in brief: as §1

[10] = system: corn (Zea mays); conditions: Postemergence; for Plant response rating, Corn: scale 0 to 100
Method in brief: as §1

[11] = system: yellow nutsedge (Cyperus esculentus); conditions: Postemergence; for Plant response rating, Nutsedge, Yellow: scale 0 to 100
Method in brief: as §1

[12] = system: lambsquarters (Chenopodium album); conditions: Postemergence; for Plant response rating, Lambsquarters: scale 0 to 100
Method in brief: as §1

[13] = system: morningglory (Ipomoea coccinea); conditions: Postemergence; for Plant response rating, Morningglory: scale 0 to 100
Method in brief: as §1

In the case of `C=CCn1cc(C(=O)c2ccccc2)c(-c2cc(Cl)cc(Cl)c2)n1` [Compound 60], the “Plant response rating (0 to 100), Ryegrass, Italian” value ([1]; 62 g ai/ha) is reported as 0, the “Plant response rating (0 to 100), Ryegrass, Italian” value ([1]; 125 g ai/ha) is reported as 0 and the “Plant response rating, Ryegrass, Italian” value ([1]; 250 g ai/ha) is reported as 0. The “Plant response rating (0 to 100), Foxtail, Giant” value ([2]; 31 g ai/ha) was 0, the “Plant response rating (0 to 100), Foxtail, Giant” value ([2]; 62 g ai/ha) was 5 and the “Plant response rating (0 to 100), Foxtail, Giant” value ([2]; 125 g ai/ha) was 5. The “Plant response rating, Foxtail, Giant” value ([2]; 250 g ai/ha) was 5, the “Plant response rating (0 to 100), Wheat” value ([3]; 62 g ai/ha) was 0 and the “Plant response rating (0 to 100), Wheat” value ([3]; 125 g ai/ha) was 0. For the same compound, the “Plant response rating, Wheat” value ([3]; 250 g ai/ha) was 0, the “Plant response rating (0 to 100), Velvetleaf” value ([4]; 62 g ai/ha) was 70 and the “Plant response rating (0 to 100), Velvetleaf” value ([4]; 125 g ai/ha) was 70. The “Plant response rating, Velvetleaf” value ([4]; 250 g ai/ha) was 80, the “Plant response rating (0 to 100), Pigweed” value ([5]; 62 g ai/ha) was 60 and the “Plant response rating (0 to 100), Pigweed” value ([5]; 125 g ai/ha) was 65. The “Plant response rating, Pigweed” value ([5]; 250 g ai/ha) was 100, the “Plant response rating (0 to 100), Soybean” value ([6]; 62 g ai/ha) was 5 and the “Plant response rating (0 to 100), Soybean” value ([6]; 125 g ai/ha) was 5. The “Plant response rating, Soybean” value ([6]; 250 g ai/ha) was 5, the “Plant response rating (0 to 100), Johnsongrass” value ([7]; 62 g ai/ha) was 0 and the “Plant response rating (0 to 100), Johnsongrass” value ([7]; 125 g ai/ha) was 5. The “Plant response rating, Johnsongrass” value ([7]; 250 g ai/ha) was 5, the “Plant response rating (0 to 100), Crabgrass, Large” value ([8]; 31 g ai/ha) was 0 and the “Plant response rating (0 to 100), Crabgrass, Large” value ([8]; 62 g ai/ha) was 0. For the same compound, the “Plant response rating (0 to 100), Crabgrass, Large” value ([8]; 125 g ai/ha) was 5, the “Plant response rating, Crabgrass, Large” value ([8]; 250 g ai/ha) was 5 and the “Plant response rating (0 to 100), Galium” value ([9]; 31 g ai/ha) was 0. The “Plant response rating (0 to 100), Galium” value ([9]; 62 g ai/ha) was 0, the “Plant response rating (0 to 100), Galium” value ([9]; 125 g ai/ha) was 0 and the “Plant response rating, Galium” value ([9]; 250 g ai/ha) was 0. The “Plant response rating (0 to 100), Corn” value ([10]; 31 g ai/ha) was 5, the “Plant response rating (0 to 100), Corn” value ([10]; 62 g ai/ha) was 5 and the “Plant response rating (0 to 100), Corn” value ([10]; 125 g ai/ha) was 5. For the same compound, the “Plant response rating, Corn” value ([10]; 250 g ai/ha) was 5, the “Plant response rating (0 to 100), Nutsedge, Yellow” value ([11]; 62 g ai/ha) was 0 and the “Plant response rating (0 to 100), Nutsedge, Yellow” value ([11]; 125 g ai/ha) was 0. For the same compound, the “Plant response rating, Nutsedge, Yellow” value ([11]; 250 g ai/ha) was 0, the “Plant response rating (0 to 100), Lambsquarters” value ([12]; 62 g ai/ha) was 5 and the “Plant response rating (0 to 100), Lambsquarters” value ([12]; 125 g ai/ha) was 40. The “Plant response rating, Lambsquarters” value ([12]; 250 g ai/ha) was 60, the “Plant response rating (0 to 100), Morningglory” value ([13]; 62 g ai/ha) was 0 and the “Plant response rating (0 to 100), Morningglory” value ([13]; 125 g ai/ha) was 0. The “Plant response rating, Morningglory” value ([13]; 250 g ai/ha) was 0.
With `Fc1cccc(NN=C(c2ccccc2)c2c[nH]nc2-c2cc(Cl)cc(Cl)c2)c1` [Compound 58] the “Plant response rating (0 to 100), Ryegrass, Italian” value ([1]; 62 g ai/ha) was 0, the “Plant response rating (0 to 100), Ryegrass, Italian” value ([1]; 125 g ai/ha) was 0 and the “Plant response rating, Ryegrass, Italian” value ([1]; 250 g ai/ha) was 0. For the same compound, the “Plant response rating, Ryegrass, Italian” value ([1]; 500 g ai/ha) was 0, the “Plant response rating (0 to 100), Foxtail, Giant” value ([2]; 62 g ai/ha) was 0 and the “Plant response rating (0 to 100), Foxtail, Giant” value ([2]; 125 g ai/ha) was 0. The “Plant response rating, Foxtail, Giant” value ([2]; 250 g ai/ha) was 0, the “Plant response rating, Foxtail, Giant” value ([2]; 500 g ai/ha) was 5 and the “Plant response rating (0 to 100), Wheat” value ([3]; 62 g ai/ha) was 0. The “Plant response rating (0 to 100), Wheat” value ([3]; 125 g ai/ha) was 0, the “Plant response rating, Wheat” value ([3]; 250 g ai/ha) was 0 and the “Plant response rating, Wheat” value ([3]; 500 g ai/ha) was 0. For the same compound, the “Plant response rating (0 to 100), Velvetleaf” value ([4]; 62 g ai/ha) was 60, the “Plant response rating (0 to 100), Velvetleaf” value ([4]; 125 g ai/ha) was 65 and the “Plant response rating, Velvetleaf” value ([4]; 250 g ai/ha) was 70. The “Plant response rating, Velvetleaf” value ([4]; 500 g ai/ha) was 75, the “Plant response rating (0 to 100), Pigweed” value ([5]; 62 g ai/ha) was 100 and the “Plant response rating (0 to 100), Pigweed” value ([5]; 125 g ai/ha) was 100. For the same compound, the “Plant response rating, Pigweed” value ([5]; 250 g ai/ha) was 100, the “Plant response rating, Pigweed” value ([5]; 500 g ai/ha) was 100 and the “Plant response rating (0 to 100), Soybean” value ([6]; 62 g ai/ha) was 0. For the same compound, the “Plant response rating (0 to 100), Soybean” value ([6]; 125 g ai/ha) was 5, the “Plant response rating, Soybean” value ([6]; 250 g ai/ha) was 10 and the “Plant response rating, Soybean” value ([6]; 500 g ai/ha) was 10. The “Plant response rating (0 to 100), Johnsongrass” value ([7]; 62 g ai/ha) was 0, the “Plant response rating (0 to 100), Johnsongrass” value ([7]; 125 g ai/ha) was 25 and the “Plant response rating, Johnsongrass” value ([7]; 250 g ai/ha) was 25. The “Plant response rating, Johnsongrass” value ([7]; 500 g ai/ha) was 25, the “Plant response rating (0 to 100), Crabgrass, Large” value ([8]; 62 g ai/ha) was 5 and the “Plant response rating (0 to 100), Crabgrass, Large” value ([8]; 125 g ai/ha) was 5. The “Plant response rating, Crabgrass, Large” value ([8]; 250 g ai/ha) was 5, the “Plant response rating, Crabgrass, Large” value ([8]; 500 g ai/ha) was 5 and the “Plant response rating (0 to 100), Galium” value ([9]; 62 g ai/ha) was 0. For the same compound, the “Plant response rating (0 to 100), Galium” value ([9]; 125 g ai/ha) was 0, the “Plant response rating, Galium” value ([9]; 250 g ai/ha) was 0 and the “Plant response rating, Galium” value ([9]; 500 g ai/ha) was 5. For the same compound, the “Plant response rating (0 to 100), Corn” value ([10]; 62 g ai/ha) was 0, the “Plant response rating (0 to 100), Corn” value ([10]; 125 g ai/ha) was 5 and the “Plant response rating, Corn” value ([10]; 250 g ai/ha) was 5. For the same compound, the “Plant response rating, Corn” value ([10]; 500 g ai/ha) was 5, the “Plant response rating (0 to 100), Nutsedge, Yellow” value ([11]; 62 g ai/ha) was 0 and the “Plant response rating (0 to 100), Nutsedge, Yellow” value ([11]; 125 g ai/ha) was 0. For the same compound, the “Plant response rating, Nutsedge, Yellow” value ([11]; 250 g ai/ha) was 0, the “Plant response rating, Nutsedge, Yellow” value ([11]; 500 g ai/ha) was 0 and the “Plant response rating (0 to 100), Lambsquarters” value ([12]; 62 g ai/ha) was 70. The “Plant response rating (0 to 100), Lambsquarters” value ([12]; 125 g ai/ha) was 100, the “Plant response rating, Lambsquarters” value ([12]; 250 g ai/ha) was 100 and the “Plant response rating, Lambsquarters” value ([12]; 500 g ai/ha) was 100. For the same compound, the “Plant response rating (0 to 100), Morningglory” value ([13]; 62 g ai/ha) was 0, the “Plant response rating (0 to 100), Morningglory” value ([13]; 125 g ai/ha) was 0 and the “Plant response rating, Morningglory” value ([13]; 250 g ai/ha) was 0. The “Plant response rating, Morningglory” value ([13]; 500 g ai/ha) was 0.
